Data on 5 molecules can be found in ChEMBL document CHEMBL2074457, “LST-2, a human liver-specific organic anion transporter, determines methotrexate sensitivity in gastrointestinal cancers” (Gastroenterology, 2001).

The target of series [1] is T1, Solute carrier organic anion transporter family member 1B3 (Homo sapiens, UniProt Q9NPD5).
T1 sequence (Q9NPD5 whole entry): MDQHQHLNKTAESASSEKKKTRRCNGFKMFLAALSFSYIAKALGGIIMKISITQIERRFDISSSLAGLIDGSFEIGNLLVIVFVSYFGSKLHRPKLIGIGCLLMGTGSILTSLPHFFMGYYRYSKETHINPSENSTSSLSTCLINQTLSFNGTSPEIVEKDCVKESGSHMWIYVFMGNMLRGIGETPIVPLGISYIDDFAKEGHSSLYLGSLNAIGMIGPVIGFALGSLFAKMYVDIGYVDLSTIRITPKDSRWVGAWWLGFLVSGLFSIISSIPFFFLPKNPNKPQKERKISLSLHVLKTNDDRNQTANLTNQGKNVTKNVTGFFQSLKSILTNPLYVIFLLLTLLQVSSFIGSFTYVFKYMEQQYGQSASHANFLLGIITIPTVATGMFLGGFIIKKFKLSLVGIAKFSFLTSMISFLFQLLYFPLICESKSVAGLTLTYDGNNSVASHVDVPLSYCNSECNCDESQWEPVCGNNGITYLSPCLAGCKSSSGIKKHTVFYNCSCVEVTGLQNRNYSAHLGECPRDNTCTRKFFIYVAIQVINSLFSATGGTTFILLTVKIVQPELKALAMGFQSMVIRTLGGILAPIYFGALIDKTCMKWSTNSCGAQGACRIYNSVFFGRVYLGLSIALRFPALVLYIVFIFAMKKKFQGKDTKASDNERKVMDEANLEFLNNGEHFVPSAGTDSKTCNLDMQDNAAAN
Description: TP_TRANSPORTER: inhibition of MTX uptake (MTX: 1 uM, BSP: 100 uM) in Xenopus laevis oocytes. As to conditions: oocyte. It is filed as functional, cell-based.

Series [2] deals with T1, Solute carrier organic anion transporter family member 1B3. Description: (§1) TP_TRANSPORTER: uptake in Xenopus laevis oocytes. It is filed as functional, cell-based, Oocyte. As to conditions: for Activity: oocyte; for Km: Xenopus laevis oocytes expressing SLCO1B3 (OATP1B3).
Series [3] concerns the target T2, Solute carrier organic anion transporter family member 1B1 (Homo sapiens, UniProt Q9Y6L6).
T2 sequence (Q9Y6L6 whole entry): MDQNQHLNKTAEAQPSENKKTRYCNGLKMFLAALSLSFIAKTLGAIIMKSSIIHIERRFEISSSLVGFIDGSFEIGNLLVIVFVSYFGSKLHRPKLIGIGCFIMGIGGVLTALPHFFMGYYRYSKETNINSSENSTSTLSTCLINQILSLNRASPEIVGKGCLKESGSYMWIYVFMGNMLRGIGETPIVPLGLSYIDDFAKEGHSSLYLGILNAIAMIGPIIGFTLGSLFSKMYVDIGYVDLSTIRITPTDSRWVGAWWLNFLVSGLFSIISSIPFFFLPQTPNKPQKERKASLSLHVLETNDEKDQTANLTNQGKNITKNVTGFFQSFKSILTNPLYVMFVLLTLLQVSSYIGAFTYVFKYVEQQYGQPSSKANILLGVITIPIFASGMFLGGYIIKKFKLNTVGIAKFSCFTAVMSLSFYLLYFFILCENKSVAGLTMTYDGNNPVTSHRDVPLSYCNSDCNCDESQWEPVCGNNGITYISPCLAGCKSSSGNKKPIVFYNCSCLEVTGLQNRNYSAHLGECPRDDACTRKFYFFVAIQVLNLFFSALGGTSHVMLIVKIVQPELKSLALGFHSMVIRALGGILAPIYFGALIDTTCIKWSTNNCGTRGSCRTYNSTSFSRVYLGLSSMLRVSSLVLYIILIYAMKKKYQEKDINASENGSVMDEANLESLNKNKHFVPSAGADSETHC
Described as §1. It is filed as functional, cell-based. As to conditions: oocyte.

Regarding `O=C1OC(c2ccc(O)c(S(=O)(=O)[O-])c2)(c2ccc(O)c(S(=O)(=O)[O-])c2)c2c(Br)c(Br)c(Br)c(Br)c21.[Na+].[Na+]` [SULFOBROMOPHTHALEIN SODIUM], in series [1], the Activity entry is “inhibitor [+]”.

For the molecule `CC1(C)SSC(C)(C)[C@@H](NC(=O)[C@@H](N)Cc2ccc(O)cc2)C(=O)NCC(=O)N[C@@H](Cc2ccccc2)C(=O)N[C@H]1C(=O)O`, in series [2], the Activity entry was “is not a substrate [-]”.

Regarding `N[C@@H](Cc1cc(I)c(Oc2ccc(O)c(I)c2)c(I)c1)C(=O)O` [LIOTHYRONINE], in series [2], the Michaelis constant (Km) stood at 6.4 µM.

Turning to `CN(Cc1cnc2nc(N)nc(N)c2n1)c1ccc(C(=O)N[C@@H](CCC(=O)O)C(=O)O)cc1` [METHOTREXATE], the Activity entry in series [3] is “substrate [+]”. In series [2], the Michaelis constant (Km) came out at 24.7 µM.

In the case of `C[C@]12CC[C@H](OS(=O)(=O)O)CC1=CC[C@@H]1[C@@H]2CC[C@]2(C)C(=O)CC[C@@H]12` [PRASTERONE SULFURIC ACID], in series [2], the Activity result was “substrate [+]”.

One may read the Km as the substrate concentration at which the rate is half of its maximum.
